Data published in publication PMC12497685, “Anticoronavirus Isoquinoline Alkaloids: Unraveling the Secrets of Their Structure–Activity Relationship” (Influenza and Other Respiratory Viruses, 2025).
Values joined by “and” are separate entries in the source; they are usually repeats but may differ in a detail not shown here. Equal entries are not always repeated. Where two headings read alike, the source gives them in different places.

Experiments:
HCoV‐229E = assay: microbe, parasite or virus in culture; assay type: cell-based; settings: for inhibition at 10 µM: Human coronavirus 229E, Huh-7, read-out: Protective effects HCoV-229E %; for inhibition at 10 µM / Protective effects HCoV-229E %: compared with vehicle control, Huh7 cells, n = 1, at 10 μM
Huh7 cells = settings: at 10 μM, compared with vehicle control, n = 1
[1] = tested on: hACE‐2‐overexpressed HEK293T (ACE2‐293T cells)
in vitro = settings: human

| Molecule | Cytotoxicity to the host Huh7 cells % (Huh7 cells) | Protective effects HCoV-229E % (HCoV‐229E) | also measured |
| --- | --- | --- | --- |
| COc1cc2c3cc1Oc1c(OC)c(OC)cc4c1[C@@H](Cc1ccc(O)c(c1)Oc1ccc(cc1)C[C@@H]3N(C)CC2)N(C)CC4 [Compound 17, (+)‐berbamine] | 25% and ~ 20% | – | inhibition at 10 µM (HCoV‐229E): 70%; cytotoxicity towards hACE2‐293 T cells (in words) [1]: nontoxic; viability at 10 µM (in vitro): 103 ± 2.42% |
| COc1cc2c3cc1Oc1c(O)c(OC)cc4c1[C@@H](Cc1ccc(O)c(c1)Oc1ccc(cc1)C[C@@H]3N(C)CC2)N(C)CC4 [Compound 19, (+)‐obamegine] | — (Non-toxic (insignificant cytotoxic effects, below 20%)) | – | inhibition at 10 µM (HCoV‐229E): 80%; cytotoxicity towards hACE2‐293 T cells (in words) [1]: nontoxic; viability at 10 µM (in vitro): 97.5 ± 7.15% |
| COc1cc2c(cc1O)C[C@@H]1NCCc3cc(OC)c(OC)c-2c31 [Compound 58, (+)‐laurotetanine] | — (Non-toxic (insignificant cytotoxic effects, below 20%)) | — (Not active (insignificant protective effects below 20%)) | – |
| COC1=C[C@]23CCN(C)[C@H](Cc4ccc(OC)c(O)c42)C3=CC1=O [Compound 59, (−)‐salutaridine] | — (Non-toxic (insignificant cytotoxic effects, below 20%)) | — (Not active (insignificant protective effects below 20%)) | – |
| COC1=C[C@@]23CCN(C)[C@@H](Cc4cc(O)c(OC)cc42)C3=CC1=O [Compound 60, (−)‐pallidine] | — (Non-toxic (insignificant cytotoxic effects, below 20%)) | — (Not active (insignificant protective effects below 20%)) | – |
| COc1cc2c(cc1OC)-c1c(OC)c(OC)cc3ccnc(c13)C2=O [Compound 61, oxoglaucine] | — (Non-toxic (insignificant cytotoxic effects, below 20%)) | – | inhibition at 10 µM (HCoV‐229E): < 20% |
| O=C1c2ccccc2-c2c3c(cc4ccnc1c24)OCO3 [Compound 62, liriodenine] | — (Non-toxic (insignificant cytotoxic effects, below 20%)) | – | inhibition at 10 µM (HCoV‐229E): < 20% |
| (+)‐aromoline [Compound 16] | — (Non-toxic (insignificant cytotoxic effects, below 20%)) | 85% | EC50 (HCoV‐229E): 4.33 ± 0.9 µM; cytotoxicity towards hACE2‐293 T cells (in words) [1]: nontoxic; Cell viability (%) ([1]; 10 µM): 103.64 ± 3.23% |
| (±)‐Haemanthidine [Compound 1] | 20% and ~ 20% | 80% | EC50 (HCoV‐229E): 4.11 ± 0.41 µM; cytotoxicity towards hACE2‐293 T cells (in words) [1]: toxic; Cell viability (%) ([1]; ACE2-293T, 10 μM, 24 h, WST-1): 51.97 ± 7.07% |
| (±)‐O‐methylfumarofine [Compound 44] | — (Non-toxic (insignificant cytotoxic effects, below 20%)) | — (Not active (insignificant protective effects below 20%)) | – |
| (−)‐O‐methylcaryachine [Compound 35] | — (Non-toxic (insignificant cytotoxic effects, below 20%)) | — (Not active (insignificant protective effects below 20%)) | – |
| (−)‐berkristine [Compound 21] | — (Non-toxic (insignificant cytotoxic effects, below 20%)) | 65% | – |
| (−)‐corypalmine [Compound 25] | — (Non-toxic (insignificant cytotoxic effects, below 20%)) | — (Not active (insignificant protective effects below 20%)) | – |
| (−)‐fumarophycine hydrochloride [Compound 37] | — (Non-toxic (insignificant cytotoxic effects, below 20%)) | — (Not active (insignificant protective effects below 20%)) | – |
| (−)‐undulatine [Compound 13] | — (Non-toxic (insignificant cytotoxic effects, below 20%)) | — (Not active (insignificant protective effects below 20%)) | – |
| N‐methyllaurotetanine [Compound 56] | — (Non-toxic (insignificant cytotoxic effects, below 20%)) | — (Not active (insignificant protective effects below 20%)) | – |
| seco‐isopowellaminone [Compound 6] | 20% | — (Not active (insignificant protective effects below 20%)) | – |
